Assay results reported in the supplement of paper PMC9763283.
Several values for one entry are separate records, joined by “and”; a condition that tells them apart may be missing. Equal entries are not always repeated.

How the values were obtained:
Experiment in all cases: area under growth-rate inhibition curve (AUC GRI) (dimensionless (GR-based AUC)); higher = less growth inhibition
Conditions in all cases: exposure time: 72 h; concentrations: 0.1, 1, 10 uM
BT474-LTR = system: BT474-LTR
How it was run: (§1)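 Six breast cancer cell line models (two triple-negative lines, plus parental and lapatinib + trastuzumab-resistant HER2+ lines) were plated at optimised log-phase densities and exposed to compound at 0.1, 1 or 10 µM for 72 h. Cells were fixed in 4% paraformaldehyde, and nuclei were stained with Hoechst 33342 or DAPI, imaged and counted. Area under the growth-rate inhibition curve came from 2 biological replicates, with growth corrected using Day 0 plates, untreated Day 3 plates and DMSO controls.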

BT474-P = system: BT474-P
How it was run: as §1

MDA-MB-231 = system: MDA-MB-231
How it was run: as §1

MDA-MB-468 = system: MDA-MB-468
How it was run: as §1

SKBR3-LTR = system: SKBR3-LTR
How it was run: as §1

SKBR3-P = system: SKBR3-P
How it was run: as §1

Row | Compound | area under growth-rate inhibition curve (BT474-LTR) | area under growth-rate inhibition curve (BT474-P) | area under growth-rate inhibition curve (MDA-MB-231) | area under growth-rate inhibition curve (MDA-MB-468) | area under growth-rate inhibition curve (SKBR3-LTR) | area under growth-rate inhibition curve (SKBR3-P)
1 | COc1ccccc1Oc1c(NS(=O)(=O)c2ccc(C(C)(C)C)cc2)nc(-c2ncccn2)nc1OCCO.O [Bosentan Hydrate] | 1.09 | 1.04 | 1.04 | 1.01 | 1.06 | 1.01
2 | COc1ccccc1Oc1c(NS(=O)(=O)c2ccc(C(C)(C)C)cc2)nc(-c2ncccn2)nc1OCCO [Bosentan] | 1.08 | 1.03 | 1.03 | 1.03 | 1.05 | 1.02
3 | Oc1ccc2ccc(OCCCCN3CCN(c4cccc5sccc45)CC3)cc2n1 [Brexpiprazole] | 1.05 | 1.04 | 1 | 0.99 | 1.02 | 1.03
4 | CN(C)CCC(c1ccc(Br)cc1)c1ccccn1.O=C(O)/C=C\C(=O)O (stereo not given) [Brompheniramine hydrogen maleate] | 1.09 | 1.05 | 1.03 | 1.04 | 1.04 | 0.998
5 | CCCC1O[C@@H]2C[C@H]3[C@@H]4CCC5=CC(=O)C=C[C@]5(C)[C@H]4[C@@H](O)C[C@]3(C)[C@]2(C(=O)CO)O1 (stereo not given in full) [Budesonide] | 0.98 | 0.901 | 0.971 | 1.03 | 1.03 | 0.912
6 | CCCCN1CCCCC1C(=O)[NH2+]c1c(C)cccc1C.[Cl-] (stereo not given) [Bupivacaine HCl] | 1.12 | 1.1 | 1.04 | 1.07 | 1.1 | 1.06
7 | O=C1CC2(CCCC2)CC(=O)N1CCCCN1CCN(c2ncccn2)CC1.[Cl-].[H+] [Buspirone hydrochloride] | 1.02 | 1.01 | 1 | 1.01 | 1.03 | 1.01
8 | C=CCN1CC(C(=O)N(CCCN(C)C)C(=O)NCC)CC2c3cccc4[nH]cc(c34)CC21 (stereo not given) [Cabergoline] | 1.05 | 1.01 | 1.04 | 1.05 | 1.05 | 1.03
9 | Cc1ccc(C2OC(CO)C(O)C(O)C2O)cc1Cc1ccc(-c2ccc(F)cc2)s1 (stereo not given) [Canagliflozin] | 1.07 | 1.02 | 1.02 | 1 | 1.05 | 1.03
10 | CN(C)C(=O)N[C@H]1CC[C@H](CCN2CCN(c3cccc(Cl)c3Cl)CC2)CC1 [Cariprazine] | 1.04 | 1.02 | 1.02 | 1.02 | 1.05 | 1.01
11 | CC(C)(C)NCC(O)COc1cccc2c1CCC(=O)N2.[Cl-].[H+] (stereo not given) [Carteolol HCl] | 1.11 | 1.05 | 1.04 | 1.03 | 1.1 | 1.04
12 | COc1ccccc1OCCNCC(O)COc1cccc2[nH]c3ccccc3c12 (stereo not given) [Carvedilol] | 1.03 | 0.957 | 1.03 | 0.937 | 1.07 | 1
13 | O=C(O)COCCN1CCN(C(c2ccccc2)c2ccc(Cl)cc2)CC1.[Cl-].[Cl-].[H+].[H+] (stereo not given) [Cetirizine DiHCl] | 1.07 | 1.03 | 1.02 | 1 | 1.03 | 0.997
14 | COc1ccc(C(Cl)=C(c2ccc(OC)cc2)c2ccc(OC)cc2)cc1 [Chlorotrianisene] | 1.08 | 0.983 | 1.01 | 1 | 1.05 | 0.987
15 | CN(C)CCC(c1ccc(Cl)cc1)c1ccccn1.O=C(O)/C=C\C(=O)O (stereo not given) [Chlorpheniramine Maleate] | 1.12 | 1.05 | 1.03 | 1.04 | 1.03 | 1.01
16 | C[NH+](C)CCCN1c2ccccc2Sc2ccc(Cl)cc21.[Cl-] [Chlorpromazine Hydrochloride] | 0.991 | 1 | 0.985 | 0.989 | 1.02 | 0.994
17 | CN(C)CC/C=C1/c2ccccc2Sc2ccc(Cl)cc21 [Chlorprothixene] | 1.01 | 0.997 | 1.02 | 0.931 | 1.03 | 0.97
18 | CC(C)C(=O)OCC(=O)[C@@]12O[C@H](C3CCCCC3)O[C@@H]1C[C@H]1[C@@H]3CCC4=CC(=O)C=C[C@]4(C)[C@H]3[C@@H](O)C[C@@]12C [Ciclesonide] | 0.999 | 0.947 | 0.996 | 1.03 | 1.05 | 0.955
19 | CC1(C)C[C@@H]1C(=O)N/C(=C\CCCCSC[C@H](N)C(=O)O)C(=O)[O-].[Na+] [Cilastatin sodium] | 1.05 | 1.03 | 1 | 1.02 | 1.03 | 1.01
20 | CCOC(=O)[C@H](CCc1ccccc1)N[C@H]1CCCN2CCC[C@@H](C(=O)O)N2C1=O.O [Cilazapril Monohydrate] | 1.1 | 1.04 | 1.03 | 1.04 | 1.07 | 1.04
21 | O=C1CCc2cc(OCCCCc3nnnn3C3CCCCC3)ccc2N1 [Cilostazol] | 1.04 | 1 | 1.05 | 1.03 | 1.06 | 1.03
22 | CNC(=NCCSCc1nc[nH]c1C)NC#N [Cimetidine] | 1.05 and 1.12 | 1.02 and 1.06 | 1.04 and 1.05 | 1.04 and 1.03 | 1.05 and 1.06 | 1.02
23 | C[C@@H](NCCCc1cccc(C(F)(F)F)c1)c1cccc2ccccc12.[Cl-].[H+] [Cinacalcet HCl] | 0.922 | 0.9 | 0.931 | 0.896 | 0.883 | 0.909
24 | O=C(O)C=CC(=O)O.O=C(c1ccc(OCCCc2c[nH]cn2)cc1)C1CC1 [Ciproxifan] | 1.06 | 0.976 | 1.02 | 0.991 | 1.07 | 1.01
25 | COc1ccc(C[C@@H]2c3cc(OC)c(OC)cc3CC[N@+]2(C)CCC(=O)OCCCCCOC(=O)CC[N@@+]2(C)CCc3cc(OC)c(OC)cc3[C@H]2Cc2ccc(OC)c(OC)c2)cc1OC.O=S(=O)([O-])c1ccccc1.O=S(=O)([O-])c1ccccc1 [Cisatracurium Besylate] | 1.01 | 0.998 | 0.997 | 0.988 | 1.01 | 0.961
